Where “and” joins values, the source holds several entries; their conditions need not be identical. Identical values can stand only once.
What was measured:
[1] = system: BMDM, human STING knock-in; assay: IP10 induction in bone marrow-derived macrophages; assay type: cell-based, mouse; conditions: 50μM, n=1
[2] = target: human STING (Homo sapiens, UniProt Q86WV6, G230A/R293Q/R71H); assay: THP1-Dual ISRE-Luc reporter gene assay (primary screen and dose response); conditions: for THP1-Dual reporter activity: single replicates (n=2)
Chain of human STING (Q86WV6 whole entry R71H/G230A/R293Q): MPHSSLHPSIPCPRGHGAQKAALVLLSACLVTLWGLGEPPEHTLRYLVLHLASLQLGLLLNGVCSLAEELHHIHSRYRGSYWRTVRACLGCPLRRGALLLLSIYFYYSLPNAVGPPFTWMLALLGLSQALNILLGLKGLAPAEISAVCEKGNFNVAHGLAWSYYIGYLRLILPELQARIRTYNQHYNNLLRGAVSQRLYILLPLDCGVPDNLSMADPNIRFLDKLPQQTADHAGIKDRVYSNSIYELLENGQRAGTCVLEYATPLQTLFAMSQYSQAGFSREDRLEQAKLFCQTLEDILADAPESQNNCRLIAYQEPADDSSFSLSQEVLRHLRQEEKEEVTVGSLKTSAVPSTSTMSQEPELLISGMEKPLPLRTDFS

[3] = target: human STING Y240C (Homo sapiens, UniProt Q86WV6, Y240C); assay: ISRE reporter assay with STING co-transfection in HEK293T cells
Chain of human STING Y240C (Q86WV6 whole entry Y240C): as the sequence (Q86WV6 whole entry R71H/G230A/R293Q) above, with H71R, A230G, Y240C, Q293R counted along it

**Q.** `COc1cc(C(=O)O)ccc1NCc1ccc(C2(C(C)(C)C)OCC(C)(C)CO2)cc1` [NVS-STG2] was tested. Which IP10 ([1]; BMDM hSTING+/+) did it give?
**A.** 5284 pg/mL

**Q.** What about the IP10 ([1]; BMDM hSTING+/indel) of the same molecule?
**A.** 1541.25 pg/mL

**Q.** What about the “improvement of AC50 over NVS-STG1” value [2] of the same molecule?
**A.** ~10 fold

**Q.** And the “induction of ISRE-Luc reporter” value [2]?
**A.** over 100 fold

**Q.** What about the THP1-Dual reporter activity ([2]; 97.7 nM) of the same molecule?
**A.** 10.063 and -15.21

**Q.** And the THP1-Dual reporter activity ([2]; 195 nM)?
**A.** 30.21 and -21.271

**Q.** And the THP1-Dual reporter activity ([2]; 391 nM)?
**A.** 28.405 and -4.368

**Q.** What about the THP1-Dual reporter activity ([2]; 781 nM) of the same molecule?
**A.** -15.248 and 7.115

**Q.** What about the THP1-Dual reporter activity ([2]; 1563 nM) of the same molecule?
**A.** 29.455 and 0.573

**Q.** And the THP1-Dual reporter activity ([2]; 3125 nM)?
**A.** 539.702 and 407.097

**Q.** And the THP1-Dual reporter activity ([2]; 6250 nM)?
**A.** 5408.19 and 4554.72

**Q.** And the THP1-Dual reporter activity ([2]; 12500 nM)?
**A.** 9931.09 and 8981.43

**Q.** And the THP1-Dual reporter activity ([2]; 25000 nM)?
**A.** 8940.66 and 8036.74

**Q.** What about the “STING activation in words” value [3] of the same molecule?
**A.** maintained full agonist activity

— PMC10907298 (Nature chemical biology, 2023)
